Key:
OBP2 = experiment: Fluorescent-quench ligand-protein-binding assay (OBP2 binding screen); set-up: species or system Apis mellifera
Source text: To identify a honeybee repellent disclosed herein, candidate compounds were screened based upon the fact that 2-heptanone is an established repellent of bees. 2-heptanone is thought to mediate its behavioral response through binding to a specific odorant-binding protein called OBP2. Therefore compounds that bind OBP2 have the potential to act as odor “mimics” of 2-heptanone. By utilizing a fluorescent-quench, ligand-protein-binding assay, 30,000 compounds from the DIVERSET® library (ChemBridge Corp., San Diego, Calif.), a chemical library, were screened and over 150 candidate compounds were isolated that bind OBP2 (Table 1). Such assays are generally known in the art. See, e.g., Briand, et al., Ligand-Binding Properties and Structural Characterization of a Novel Rat Odorant-Binding Protein Variant, Eur. J. Biochem. 267(10): 3079-3089 (2000); Briand, et al., Ligand Binding and Physico-Chemical Properties of ASP2, A Recombinant Odorant-Binding Protein From Honeybee (Apis mellifera L.), Eur. J. Biochem. 268(3): 752-760 (2001); Briand, et al., Characterization of a Chemosensory Protein (ASP3c) from Honeybee (Apis mellifera L.) as a Brood Pheromone Carrier, Eur. J. Biochem. 269(18): 4586-4596 (2002), each of which is hereby incorporated by reference in its entirety.

[1] = system: Apis mellifera Carniolan foraging worker honeybees; experiment: Proboscis extension response (PER) assay in bees conditioned to 2-heptanone; type: in vivo; conditions: final compound concentration 0.5% (TRITON X-100/water), 4 s exposure; only bees PER-positive to 2-heptanone and negative to controls counted
Protocol: To determine whether a living honeybee can recognize a candidate compound, these compounds were tested using a proboscis extension response (PER) assay using classical conditioning approaches. Proboscis extension response conditioning is a case of appetitive learning, in which bees learn to associate odor stimuli with sucrose reward in the laboratory. In this case, bees were conditioned to produce a PER to 2-heptanone as the conditioned stimulus and a sugar reward as the unconditioned stimulus. These trained bees were then exposed to an odor pulse of a candidate compound to test whether a candidate compound would also produce a PER. If the candidate compound “mimics” 2-heptanone then the honeybee will extend its proboscis.
For conditioning procedures, Apis mellifera Carniolan foraging worker honeybees were obtained from a local apiary (typically 60 bees per shipment). The honeybees were held overnight in insect cages with food and water freely available, in an environmentally controlled room on a light cycle similar to the ambient cycle at the time of the assay.
For conditioning procedures, all tests were done in an odorant delivery apparatus set inside a fume hood. The apparatus comprised a set of open-ended, horizontal, 3 cm diameter by 10 cm long plastic tubes. Each tube was designed where a honeybee could be positioned at the distal end of a tube, with the opening at the other end of the tube located proximal to an inlet of the fume hood. To deliver an odorant, room air was pumped by a diaphragm pump through a particle filter via 0.25 inch plastic tubing at approximately 0.7 m/sec. The air flow passes into the headspace above an odorant (0.5% [v/v]2-heptanone dissolved in odorless light paraffin oil) contained in a 100 mL bottle. The headspace air then passes through another plastic tube to a manifold of 4-way valves, each of which was attached near the proximal end of a plastic tube containing a bee. Each bee was exposed separately for a desired time period to the odorant by opening and closing the appropriate valve. When each valve was closed, the odor was flushed away immediately by the continuous fume hood air stream.
To train a honeybee to respond to a conditioned and unconditioned stimuli, bees were placed, without anesthesia, in individual 1.5 mL micro-centrifuge holding tubes and held overnight without access to food or water. The holding tubes containing the starved bees were placed in racks in groups of eight. One rack at a time was placed behind the odorant delivery apparatus so that each bee's head is centered at the distal end of a horizontal plastic tube. Each bee was exposed to the 2-heptanone odorant alone for four seconds, and then while being fed an 80% sucrose solution for and additional three seconds. The sucrose solution was delivered on a piece of saturated filter paper held in forceps. […] Positive and negative responses were recorded. A positive PER was scored when a bee extended its proboscis before the sucrose appeared. In a typical trial, 48 individual bees were subjected to conditioning. Six rounds of training were done before testing began, and typically a majority of the bees were successfully conditioned by the second or third round of training.
After conditioning, honeybees were tested with the candidate compounds the same day or on the following day or, most commonly, both. When held overnight, bees were fed with sucrose and kept in their holding tubes. When tested the day after training, bees were given one or more rounds of conditioning with 2-heptatone to refresh their memories. Candidate compounds stocks were made at 5% (w/v) in polyoxyethylene octyl phenyl ether (TRITON® X-100), a non-ionic detergent/surfactant, and stored at 4° C. This detergent is similar to substances used as carriers for a variety of commercial pest-control agents, can act as a solvent for both hydrophilic and hydrophobic substances, and is itself nearly odorless. […]

[2] = system: Apis mellifera Carniolan foraging worker honeybees; experiment: Choice test in free-flight box apparatus; type: in vivo; conditions: for Repellence Score: percent food-weight change vs corresponding dishes in preceding test; for Effectiveness at 10-fold lower concentration: 0.05% compared with 0.5%
Protocol: To determine whether living honeybees will choice to move towards a source of a candidate compound, these compounds were assayed using a choice test in a free-flight box apparatus.
All tests were done in a free-flight box apparatus. The apparatus comprises a 244 cm long×46 cm deep×30 cm high clear plastic box including two equally-sized independent testing chambers, each with 10 cm diameter air inlets that admit filtered room air, separated by a smaller central chamber with a screened air outlet to each testing chamber. Air can be pulled through the sealed box via a 10 cm diameter duct from the air outlet using an AQE Fume Fighter 500 fume extractor (BPA Air Quality Solutions, LLC, Charleston, S.C.), which removes the test odors using activated charcoal and HEPA filters. The box is housed in an environmentally controlled room with overhead illumination timed to correspond to the current ambient light cycle including 2 additional sets of lights timed to approximate crepuscular lighting conditions. The bottom of the apparatus was lined with clean absorbent paper marked with a 4×9 grid pattern, forming 12 cm×12 cm squares with marked coordinates.
Apis mellifera Carniolan foraging worker honeybees were obtained from a local apiary (typically 60 bees per shipment). Thirty honeybees were put into each testing chamber and were allowed to acclimate for 24 hours with food and water freely available.
At the beginning of each test day all food was removed from the test chamber, but water was continually available throughout all tests. For each test, approximately 0.3 g of organic, raw orange blossom honey was added to each clean small plastic weigh boat (Cole-Palmer). The honey boats were placed in small plastic culture dishes, which were distributed in the marked squares in the chambers. The positions of the dishes on the grid for a set of trials was chosen to avoid the bees' preferred resting area so that they had to find the food actively, but the same dish positions were maintained for a given set of trials. […] The honey in each boat was weighed on an analytical balance before and after the test, with the screened sample as a control for evaporative loss. The fume extractor was left off during the experimental trails, and was turned on to clear the air after the test dishes were covered and removed from the chamber at the end of each trial.
Based on the observation that bees tend to return to dishes in the same position where they have fed before, each set of trials with each group of bees began with “Pattern Identification” tests to see which dishes lose the most weight, reflecting the most feeding. Once bees were consuming an acceptable amount in 10-15 min, typically in 1-2 trials, we began a set of test compound trials. The test compound was pipetted onto pieces of filter paper placed on the dish bottom below the boat containing a fresh, weighed honey sample so that the test compound was inaccessible to the bees. We used 2 μL of a candidate compound at a concentration of 0.05-0.5%, in Triton X-100 or paraffin oil, on each of four pieces of filter paper per dish. The test-solution dishes were set at the same positions as the one or two dishes favored in the preceding Pattern Identification trial. To eliminate interference from the solvent, the other dishes without the test substance contained the same volume of the appropriate solvent on filter papers as the test solution dishes. The bees were allowed to feed for 10-15 minutes. Bee movements were recorded by a small, wide-angle digital video camcorder (HD Hero 960; GoPro, Halfmoon Bay, Calif.) placed on a tripod in front of the test chamber. The bees were given a brief rest while the honey was weighed and a second test was begun with fresh dishes, except that the test compound-containing dish or dishes were placed at whichever positions were most visited in the preceding test. […] The bees were then rested for 1-3 hours and a subsequent set of trials begun with another Pattern Identification. […]

[3] = amount 0.5%, negative = increase in food consumption

SMILES | OBP2 binding characteristic of compound (OBP2) | 2-heptanone positive bees testing positive to compound [1] [%] | Repellence Score [2, 3] [%] | Effectiveness at 10-fold lower concentration [2] | Repellence Score ([2]; amount 0.05%) [%] | Repellence Score ([2]; amount 0.1%) [%] | Repellent or attractant effect in choice test (in words) ([2]; reduction of feeding at dishes most visited in preceding test)
COc1ccc(C(=O)C=Cc2c(C)[nH]c3ccccc23)cc1 [compound 1, 1-(4-methoxyphenyl)-3-(2-methyl-1H-indol-3-yl)-2-propen-1-one] | Moderate (Moderate, indicates that 50% or less of the compound bound to OBP2.) | 26.6 | 57.8 | – | – | – | –
O=[N+]([O-])c1ccc(C=Cc2ccc(O)cc2)cc1 [compound 2, 4-[2-(4-nitrophenyl)vinyl]phenol] | Moderate (Moderate, indicates that 50% or less of the compound bound to OBP2.) | 31.5 | 37.6 | significantly more effective | 57.7 | – | –
COc1cc(C=NO)ccc1Oc1ccc([N+](=O)[O-])cc1 [compound 3, 3-methoxy-4-(4-nitrophenoxy)benzaldehyde oxime] | – | 14.5 | 49.8 | – | – | – | –
COc1ccc(CN2CCN(Cc3ccccc3)CC2)c(C)c1C [compound 7, 1-benzyl-4-(4-methoxy-2,3-dimethylbenzyl)piperazine] | Moderate (Moderate, indicates that 50% or less of the compound bound to OBP2.) | 39.0 | – | – | – | 62.0 | –
Cc1cc(C)c2c(N)c(C(=O)c3ccc(Cl)cc3)sc2n1 [compound 8, (3-amino-4,6-dimethylthieno[2,3-b]pyridin-2-yl)(4-chlorophenyl)methanone] | Moderate (Moderate, indicates that 50% or less of the compound bound to OBP2.) | 14.4 | −10.7 | – | – | – | slightly attractive
O=[N+]([O-])c1cc2c(cc1CN1CCN(c3ccccc3)CC1)OCO2 [compound 26] | – | 14.8 | 58.6 | significantly more effective | 60.0 | – | –
COc1ccc(C(=O)C=Cc2cn(C)c3ccccc23)cc1 [compound 50, 1-(4-methoxyphenyl)-3-(1-methyl-1H-indol-3-yl)-2-propen-1-one] | – | 22.2 | 55.7 | – | – | – | –
O=C(COC(=O)c1ccccc1)c1cccc(Br)c1 [compound 54] | Moderate (Moderate, indicates that 50% or less of the compound bound to OBP2.) | 9.1 | – | – | – | – | –
Cc1ccc2c(c1Br)C(=NNC(=O)C1CC13CCC3)C(=O)N2 (centres unmarked) [compound 55] | Moderate (Moderate, indicates that 50% or less of the compound bound to OBP2.) | 13.6 | – | – | – | – | –
CCn1c2ccccc2c2cc(C=Nc3ccc(C(N)=O)cc3)ccc21 [compound 56] | Moderate (Moderate, indicates that 50% or less of the compound bound to OBP2.) | 18.2 | – | – | – | – | –
O=C(Nc1ccccc1)Nc1ccccc1C#Cc1ccccc1 [compound 57] | Moderate (Moderate, indicates that 50% or less of the compound bound to OBP2.) | 16.7 | – | – | – | – | –
O=C(NCCCOC(=O)c1ccc(Cl)cc1)c1ccc(Cl)cc1 [compound 58] | Moderate (Moderate, indicates that 50% or less of the compound bound to OBP2.) | 8.3 | – | – | – | – | –
COC(=O)C=C(C)NC(=O)c1ccc(F)cc1 [compound 59] | Moderate (Moderate, indicates that 50% or less of the compound bound to OBP2.) | 16.7 | – | – | – | – | –
CC1CN(c2ccc([N+](=O)[O-])c(NCCOc3ccc(Cl)cc3)c2)CCN1 (centres unmarked) [compound 60] | Moderate (Moderate, indicates that 50% or less of the compound bound to OBP2.) | 25.0 | – | – | – | – | –
O=[N+]([O-])c1cc2c(cc1CN1CCN(c3ccccc3)CC1)OCO2 [compound 61] | Moderate (Moderate, indicates that 50% or less of the compound bound to OBP2.) | 17.4 | – | – | – | – | –
O=[N+]([O-])c1cc2c(cc1CN1CCN(c3cccc(Cl)c3)CC1)OCO2 [compound 64] | Moderate (Moderate, indicates that 50% or less of the compound bound to OBP2.) | 7.0 | – | – | – | – | –
